By inhibition is commonly meant the share of the control response that was lost under treatment. A word on the IC50: it is the concentration needed to halve the response being measured.

The text below walks through data of patent publication US20210253518A1, “KINASE INHIBITOR” (NISSAN CHEMICAL CORPORATION, priority 2018, published 2021).

Where two headings read alike, the source gives them in different places.

Test [1] relates to YAP protein. Description: Imaging analysis of nuclear translocation in human bone marrow-derived mesenchymal stem cells. Type of test: cell-based. The note with it: 10 μM, 4 hr, no addition 8.96. On the procedure: (§1) Nine fields of view were imaged per well using a 20× objective lens of Operatta CLS. The cell nucleus region and the cytoplasm region were identified from the obtained fluorescence images by using the analysis software Harmony (manufactured by PerkinElmer), and AlexaFluor® 647 fluorescence intensity per unit area and the AlexaFluor® 555 fluorescence intensity per unit area in each region were extracted. The nuclear translocation was evaluated by calculating the ratio of the fluorescence intensity of the cell nucleus region to the fluorescence intensity of the cytoplasmic region from the extracted values. The value becomes greater than 1 as the YAP protein and TAZ protein transfer into the cell nucleus, and less than 1 when localized in the cytoplasm.
(§2) Compounds k-1:B-1, k-1:H-1, and k-1:J-1 were evaluated for nuclear translocation of YAP protein and TAZ protein. For the nuclear translocation, imaging analysis was performed using the human bone marrow-derived mesenchymal stem cells (manufactured by PromoCell) and OperettaCLS (manufactured by PerkinElmer) described in Example 4. The compounds were added such that the final concentration of the test concentration of k-1:B-1, k-1:H-1, and k-1:J-1 was 10 μM.
(§3) Human bone marrow-derived mesenchymal stem cells cultured according to the protocol recommended by PromoCell were seeded on a 96-well plate (manufactured by PerkinElmer, CellCarrier-Ultra) at 25,000 cells/90 μL/well on the cycloolefin bottom surface, and cultured in a CO2 incubator (37° C., 5% CO2) for 1 day. After culturing, k-1:B-1, k-1:H-1, and k-1:J-1 solutions having a concentration of 100 μM were added. The cells were cultured in a CO2 incubator at 37° C. for 4 hr. The medium was exchanged with 4% para-formaldehyde solution, and the cells were fixed by allowing to stand at room temperature for 10 min. The fixed cells were subjected to immunostaining by the method described in Example 4.

Test [2] relates to TAZ protein. Described as above. The settings on record: 10 μM, 4 hr, no addition 10.05. Type of test: cell-based. As for the experimental part:
as §1, §2, §3

The target in test [3] is PKACα (Homo sapiens, UniProt P17612). Description: Off-chip Mobility Shift Assay (MSA method), kinase inhibition. It counts as biochemical. The note with it: for inhibition at 0.1 µM: read-out: inhibition (%) PKACα. On the procedure: (§4) For compound k-1:B-1, inhibitory activity evaluation (calculation of 50% inhibitory concentration (IC50)) was performed on 8 kinds of kinases (CGK2, LATS2, MSK1, p70S6K, PKACα, PKACβ, SGK2, SGK3). The activity was measured using the Off-chip Mobility Shift Assay (MSA method) described below. The compound was added such that the test concentration of k-1:B-1 was in 10 steps from the final concentration of 10 μM to 0.3 nM.
(§5) As an analysis method of the data, the mean signal of the control well containing all reaction components was set to 0% inhibition, the mean signal without enzyme addition was set to 100% inhibition, and the inhibition rate was calculated from the mean signal of 2 wells of each test substance test. The IC50 value was obtained by approximating a plot based on the test substance concentration and inhibition rate to a 4 parameter logistics curve by using the Excel Solver add-in and by the non-linear least squares method.
(§6) 5 μL of k-1:B-1 solution at 4-fold concentration, 5 μL of substrate/ATP/metal solution at 4-fold concentration, and 10 μL of kinase solution at 2-fold concentration, each prepared with assay buffer (20 mM HEPES, 0.01% Triton X-100, 2 mM DTT, pH 7.5), were mixed in the wells of a polypropylene 384-well plate and reacted at room temperature for 1 or 5 hr. Successively, 70 μL of Termination Buffer (QuickScout Screening Assist MSA; Carna Biosciences) was added to discontinue the reaction. Then, the substrate peptide and the phosphorylated peptide in the reaction solution were separated and quantified by the LabChip system (Perkin Elmer). The kinase reaction was evaluated by the resultant product ratio (P/(P+S)) calculated from the substrate peptide peak height (S) and the phosphorylated peptide peak height (P).
(§7) For compounds k-1:H-7, k-1:H-1, k-1:D-1, k-1:J-1, and k-1:B-1, inhibitory rate at 100 nM was calculated on 8 kinds of kinases (CGK2, LATS2, MSK1, p70S6K, PKACα, PKACβ, SGK2, SGK3). The activity was measured using the MSA method. As an analysis method of the data, the mean signal of the control well containing all reaction components was set to 0% inhibition, the mean signal without enzyme addition was set to 100% inhibition, and the inhibition rate was calculated from the mean signal of 2 wells of each test substance test.
as §6, with “a compound” for “k-1:B-1”

For test [4], the target named is T1, SGK2 (Homo sapiens, UniProt Q9HBY8).
T1 sequence (Q9HBY8 1-367): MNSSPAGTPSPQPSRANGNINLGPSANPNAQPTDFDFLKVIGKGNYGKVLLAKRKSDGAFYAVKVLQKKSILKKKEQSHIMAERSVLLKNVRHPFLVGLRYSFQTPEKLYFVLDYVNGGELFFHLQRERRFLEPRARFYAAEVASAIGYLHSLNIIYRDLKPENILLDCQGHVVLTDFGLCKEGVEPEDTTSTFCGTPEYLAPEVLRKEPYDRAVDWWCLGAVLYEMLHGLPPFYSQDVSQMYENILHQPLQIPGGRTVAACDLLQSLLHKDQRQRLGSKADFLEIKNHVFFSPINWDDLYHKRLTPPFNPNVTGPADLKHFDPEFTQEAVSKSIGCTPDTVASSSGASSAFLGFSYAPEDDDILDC
Described as above. Type of test: biochemical. The settings on record: for inhibition at 0.1 µM: read-out: inhibition (%) SGK2. As for the experimental part:
as §4, §5, §6, §7
as §6, with “a compound” for “k-1:B-1”

Where [5] appears, read: MSA method, 10 steps from 10 μM to 0.3 nM.

Consider `CCC(=NNC(=O)CNc1ccccc1)c1ccc(O)c(C)c1O` [k-1:H-1], for which, in test [1], the “YAP nuclear translocation rate” value worked out at 11.55. The “TAZ nuclear translocation rate” value in test [2] came out at 13.42. Also, the inhibition at 0.1 µM in test [3] (at 100 nM, MSA method) was determined as 92.1%; in test [4] (at 100 nM, MSA method), 93.6%.

Consider `CC/C(=N\NC(=O)C(C)Nc1ccccc1)c1ccc(O)c(C)c1O` (stereo not drawn) [k-1:B-1], for which, in test [1], the “YAP nuclear translocation rate” value worked out at 10.17. In test [2], the “TAZ nuclear translocation rate” value stood at 11.59. Further, the IC50 in test [3] (setting [5]) came out at 23.4 nM; in test [4] (setting [5]), 13.2 nM. Also, the inhibition at 0.1 µM in test [3] (at 100 nM, MSA method) was 82.8%; in test [4] (at 100 nM, MSA method), 87.3%.

Regarding `CC/C(=N\NC(=O)CNc1cccc(O)c1)c1ccc(O)c(C)c1O` [k-1:D-1], the inhibition at 0.1 µM in test [3] amounted to 99.7%; in test [4] it was 99.9%.

As to `CCC(=NNC(=O)C(CC)Nc1ccccc1)c1ccc(O)c(C)c1O` (stereo not drawn) [k-1:H-7], the inhibition at 0.1 µM in test [3] (at 100 nM, MSA method) turned out to be 77.7%; in test [4] (at 100 nM, MSA method), 84.3%.

As for `CC/C(=N\NC(=O)NCc1cccc(O)c1)c1ccc(O)c(C)c1O` [k-1:J-1], the “YAP nuclear translocation rate” value in test [1] was 12.70. Besides, the “TAZ nuclear translocation rate” value in test [2] came out at 14.95. The inhibition at 0.1 µM in test [3] came out at 94%; in test [4], 95.1%.
